# Measurements reported in patent US10294207B2, “Pyrazole derivatives as TNIK, IKKϵ and TBK1 inhibitor and pharmaceutical composition comprising same” (GREEN CROSS CORPORATION, priority 2015, dated 2019).
# Key:
# [1] = molecular target: T1, TBK1 (Homo sapiens, UniProt Q9UHD2); test: TBK1 inhibition, ADP-Glo Kinase Assay; assay type: biochemical; conditions: luminometer
# T1 construct: purchased Promega V3991
# T1 sequence (Q9UHD2 1-729): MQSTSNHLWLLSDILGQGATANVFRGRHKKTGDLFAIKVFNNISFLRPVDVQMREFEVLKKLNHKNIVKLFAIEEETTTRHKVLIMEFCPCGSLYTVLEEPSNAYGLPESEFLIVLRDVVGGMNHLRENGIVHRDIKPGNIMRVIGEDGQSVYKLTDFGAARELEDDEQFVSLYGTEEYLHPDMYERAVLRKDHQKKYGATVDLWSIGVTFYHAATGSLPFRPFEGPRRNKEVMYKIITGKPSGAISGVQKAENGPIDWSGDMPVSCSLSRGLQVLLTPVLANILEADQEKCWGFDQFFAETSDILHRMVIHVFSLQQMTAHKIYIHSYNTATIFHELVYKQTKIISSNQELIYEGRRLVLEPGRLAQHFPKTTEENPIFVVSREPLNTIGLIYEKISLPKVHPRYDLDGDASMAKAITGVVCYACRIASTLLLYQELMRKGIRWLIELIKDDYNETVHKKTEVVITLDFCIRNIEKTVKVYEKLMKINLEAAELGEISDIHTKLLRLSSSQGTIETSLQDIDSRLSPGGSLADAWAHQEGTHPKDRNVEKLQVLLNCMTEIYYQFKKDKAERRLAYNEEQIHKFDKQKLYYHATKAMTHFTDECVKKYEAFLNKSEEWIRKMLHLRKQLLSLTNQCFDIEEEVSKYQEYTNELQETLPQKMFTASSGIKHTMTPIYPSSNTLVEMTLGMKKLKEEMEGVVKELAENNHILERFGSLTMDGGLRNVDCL
# Protocol: (§1) Inhibition activities on TNIK, IKKε and TBK1 were evaluated using the compounds of Examples 1 to 254.
# (§2) The inhibition activities on TNIK, IKKε and TBK1 were measured by a luminometer, TNIK/IKKε/TBK1 Kinase Enzyme System (Promega, Ca# V4158; Invitrogen, PR8031B, Promega, Ca# V3991) and ADP-Glo Kinase Assay using ADP-Glo™ Kinase Analysis Kit (Promega, Ca# V9101) and a kinase reaction buffer [40 mM Tris(pH 7.5), 20 mM MgCl2, 0.1 mg/mL BSA] in accordance with the manufacturer's protocol.
# [2] = molecular target: T2, IKKε (Homo sapiens, UniProt Q14164); test: IKKε inhibition, ADP-Glo Kinase Assay; assay type: biochemical; conditions: luminometer
# T2 construct: purchased Invitrogen PR8031B
# T2 sequence (Q14164 1-716): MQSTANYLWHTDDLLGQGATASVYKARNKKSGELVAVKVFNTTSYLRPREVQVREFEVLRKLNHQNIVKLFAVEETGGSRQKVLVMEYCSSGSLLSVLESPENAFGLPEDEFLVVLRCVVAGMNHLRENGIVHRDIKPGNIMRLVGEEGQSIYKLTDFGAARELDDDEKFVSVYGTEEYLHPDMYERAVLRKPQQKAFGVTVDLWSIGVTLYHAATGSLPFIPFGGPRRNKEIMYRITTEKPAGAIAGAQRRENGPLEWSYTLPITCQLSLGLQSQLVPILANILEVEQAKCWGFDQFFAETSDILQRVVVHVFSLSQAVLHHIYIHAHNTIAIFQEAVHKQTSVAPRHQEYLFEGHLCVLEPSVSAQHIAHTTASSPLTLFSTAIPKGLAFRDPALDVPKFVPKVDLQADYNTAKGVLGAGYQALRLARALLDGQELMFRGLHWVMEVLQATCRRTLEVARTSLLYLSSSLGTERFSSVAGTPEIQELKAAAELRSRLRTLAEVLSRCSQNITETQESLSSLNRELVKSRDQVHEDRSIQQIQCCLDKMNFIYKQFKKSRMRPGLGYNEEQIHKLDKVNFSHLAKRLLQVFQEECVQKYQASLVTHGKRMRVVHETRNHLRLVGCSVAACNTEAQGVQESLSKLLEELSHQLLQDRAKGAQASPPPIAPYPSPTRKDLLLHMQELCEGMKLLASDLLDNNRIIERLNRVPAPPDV
# Protocol: as §1, §2
smiles,measurement,setting,value
"CCCC(NC(=O)c1ccc2[nH]nc(NC(=O)c3ccc(N4CCN(C)CC4)cc3)c2c1)c1cccs1 (centres unmarked) [Example 59, 3-(4-(4-Methylpiperazin-1-yl)benzamido)-N-(1-(thiophen-2-yl)butyl)-1H-indazole-5-carboxamide]",IC50,[1],0.032 µM
same,IC50,[2],0.11 µM
"O=C(Nc1n[nH]c2ccc(C(=O)NC(c3cccs3)C3CC3)cc12)c1ccc(N2CCOCC2)cc1 (centres unmarked) [Example 122, N-(Cyclopropyl(thiophen-2-yl)methyl)-3-(4-morpholinobenzamido)-1H-indazole-5-carboxamide]",IC50,[1],0.0044 µM
same,IC50,[2],0.025 µM
"CC(C)CC(NC(=O)c1ccc2[nH]nc(NC(=O)c3ccc(N4CCOCC4)cc3)c2c1)c1cccs1 (centres unmarked) [Example 130, N-(3-Methyl-1-(thiophen-2-yl)butyl)-3-(4-morpholinobenzamido)-1H-indazole-5-carboxamide]",IC50,[1],0.11 µM
same,IC50,[2],0.9 µM
"O=C(Nc1n[nH]c2ccc(C(=O)NC(c3cccs3)C(F)(F)F)cc12)c1ccc(N2CCOCC2)cc1 (centres unmarked) [Example 138, 3-(4-Morpholinobenzamido)-N-(2,2,2-trifluoro-1-(thiophen-2-yl)ethyl)-1H-indazole-5-carboxamide]",IC50,[1],0.039 µM
same,IC50,[2],0.12 µM
"O=C(NCc1ccsc1)c1ccc2[nH]nc(NC(=O)c3ccc(N4CCOCC4)cc3)c2c1 [Example 46, 3-(4-Morpholinobenzamido)-N-(thiophen-3-ylmethyl)-1H-indazole-5-carboxamide]",IC50,[1],0.0015 µM
same,IC50,[2],0.022 µM
"CCC(NC(=O)c1ccc2[nH]nc(NC(=O)c3ccc(N4CC(C)OC(C)C4)cc3)c2c1)c1cccs1 (centres unmarked) [Example 96, 3-(4-(2,6-Dimethylmorpholino)benzamido)-N-(1-(thiophen-2-yl)propyl)-1H-indazole-5-carboxamide 2,2,2-trifluoroacetate]",IC50,[1],0.0051 µM
same,IC50,[2],0.047 µM
"CC(C)(NC(=O)c1ccc2[nH]nc(NC(=O)c3ccc(F)cc3)c2c1)c1cccs1 [Example 215, 3-(4-Fluorobenzamido)-N-(2-(thiophen-2-yl)propan-2-yl)-1H-indazole-5-carboxamide]",IC50,[1],0.021 µM
same,IC50,[2],0.32 µM
"CN1CCN(c2ccc(C(=O)Nc3n[nH]c4ccc(C(=O)NCc5cscn5)cc34)cc2)CC1 [Example 174, 3-(4-(4-Methylpiperazin-1-yl)benzamido)-N-(thiazol-4-ylmethyl)-1H-indazole-5-carboxamide]",IC50,[1],0.045 µM
same,IC50,[2],0.54 µM
O=C(NCc1c[nH]nn1)c1ccc2[nH]nc(NC(=O)c3ccc(N4CCOCC4)cc3)c2c1 [Example 119],IC50,[1],0.46 µM
same,IC50,[2],1.24 µM
"CC(C)(C)OC(=O)N1CCC[C@H]1C(=O)Nc1ccc(C(=O)Nc2n[nH]c3ccc(C(=O)NCc4cccs4)cc23)cc1 [Example 210, tert-Butyl (S)-2-((4-((5-((thiophen-2-ylmethyl)carbamoyl)-1H-indazol-3-yl)carbamoyl)phenyl)carbamoyl)pyrrolidine-1-carboxylate]",IC50,[1],0.12 µM
"O=C(NCc1cccs1)c1ccc2[nH]nc(NC(=O)c3ccc(NC4CCCCC4)cc3)c2c1 [Example 162, 3-(4-(Cyclohexylamino)benzamido)-N-(thiophen-2-ylmethyl)-1H-indazole-5-carboxamide]",IC50,[1],0.08 µM
"O=C(Nc1n[nH]c2ccc(C(=O)NC(c3cccs3)C3CC3)cc12)c1ccc(F)cc1 (centres unmarked) [Example 30, N-(Cyclopropyl(thiophen-2-yl)methyl)-3-(4-fluorobenzamido)-1H-indazole-5-carboxamide]",IC50,[1],0.036 µM
"O=C(NCc1ccncc1)c1ccc2[nH]nc(NC(=O)c3ccc(N4CCOCC4)cc3)c2c1 [Example 120, 3-(4-Morpholinobenzamido)-N-(pyridin-4-ylmethyl)-1H-indazole-5-carboxamide]",IC50,[1],0.019 µM
"COc1ccc(C(=O)Nc2n[nH]c3ccc(NCc4cccs4)cc23)cc1 [Example 11, 4-Methoxy-N-(5-((thiophen-2-ylmethyl)amino)-1H-indazol-3-yl)benzamide]",IC50,[1],0.89 µM
